Test results from ChEMBL document CHEMBL4680132, “Tuning isoform selectivity and bortezomib sensitivity with a new class of alkenyl indene PDI inhibitor” (Eur J Med Chem, 2020).
Calls of active or inactive are those of the source. No cut-off for these calls is given here.

Tests used:
MM1.S [1] = assay: Inhibition of PDI in human bortezomib-resistant MM1.S cells assessed as induction of ATF4 levels at 0.5 uM incubated for 8 hrs by Western blot analysis
MM1.S [2] = assay: Inhibition of PDI in human bortezomib-resistant MM1.S cells assessed as induction of CHOP levels at 0.5 uM incubated for 8 hrs by Western blot analysis
[3] = molecular target: T1, Protein disulfide-isomerase A4 (Homo sapiens, UniProt P13667); assay: Inhibition of PDIA4 (unknown origin) expressed in Escherichia coli BL21 (DE3) incubated for 1 hr and measured by insulin reduction assay
T1 sequence (P13667 whole entry): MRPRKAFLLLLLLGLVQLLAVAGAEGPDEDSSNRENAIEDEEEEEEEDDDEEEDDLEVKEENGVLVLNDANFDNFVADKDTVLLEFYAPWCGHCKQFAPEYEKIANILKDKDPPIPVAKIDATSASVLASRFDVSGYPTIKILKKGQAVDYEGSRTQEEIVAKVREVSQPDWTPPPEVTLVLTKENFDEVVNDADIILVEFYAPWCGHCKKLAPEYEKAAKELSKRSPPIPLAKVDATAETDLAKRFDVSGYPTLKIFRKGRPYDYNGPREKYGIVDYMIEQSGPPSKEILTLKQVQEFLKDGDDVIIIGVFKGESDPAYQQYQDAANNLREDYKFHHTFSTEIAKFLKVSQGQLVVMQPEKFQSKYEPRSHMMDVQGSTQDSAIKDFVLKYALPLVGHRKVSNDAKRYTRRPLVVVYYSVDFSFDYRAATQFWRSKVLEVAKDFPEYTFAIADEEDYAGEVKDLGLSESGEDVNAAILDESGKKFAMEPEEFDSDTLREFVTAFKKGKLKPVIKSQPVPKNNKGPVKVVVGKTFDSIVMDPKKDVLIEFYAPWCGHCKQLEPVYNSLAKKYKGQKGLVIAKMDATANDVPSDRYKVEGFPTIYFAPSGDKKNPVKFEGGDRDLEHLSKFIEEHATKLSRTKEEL

MM1.S [4] = assay: Inhibition of PDI in human bortezomib-resistant MM1.S cells assessed as accumulation of poly-ubiquinated protein at 0.5 uM incubated for 8 hrs by Western blot analysis
[5] = Inhibition of thioredoxin (unknown origin); design: species or system Homo sapiens
[6] = molecular target: T2, Protein disulfide-isomerase A6 (Homo sapiens, UniProt Q15084); assay: Inhibition of PDIA6 (unknown origin) expressed in Escherichia coli BL21 (DE3) incubated for 1 hr and measured by insulin reduction assay
T2 sequence (Q15084 whole entry): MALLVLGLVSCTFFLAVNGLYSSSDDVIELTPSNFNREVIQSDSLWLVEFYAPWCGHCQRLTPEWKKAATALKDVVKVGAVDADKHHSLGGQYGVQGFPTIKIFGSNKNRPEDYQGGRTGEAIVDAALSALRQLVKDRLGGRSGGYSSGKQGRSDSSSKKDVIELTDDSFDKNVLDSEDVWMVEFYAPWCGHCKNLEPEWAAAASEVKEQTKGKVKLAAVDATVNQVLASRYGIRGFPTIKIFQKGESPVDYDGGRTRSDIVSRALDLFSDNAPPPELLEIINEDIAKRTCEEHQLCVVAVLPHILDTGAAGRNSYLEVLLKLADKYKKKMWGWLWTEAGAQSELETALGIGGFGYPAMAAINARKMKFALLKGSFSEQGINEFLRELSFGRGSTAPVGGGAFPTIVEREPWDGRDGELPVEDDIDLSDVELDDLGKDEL

MM1.S [7] = assay: Inhibition of PDI in human bortezomib-resistant MM1.S cells assessed as induction of Nrf2 levels at 0.5 uM incubated for 8 hrs by Western blot analysis
[8] = molecular target: T3, Protein disulfide-isomerase A3 (Homo sapiens, UniProt P30101); assay: Inhibition of PDIA3 (unknown origin) expressed in Escherichia coli BL21 (DE3) incubated for 1 hr and measured by insulin reduction assay
T3 sequence (P30101 whole entry): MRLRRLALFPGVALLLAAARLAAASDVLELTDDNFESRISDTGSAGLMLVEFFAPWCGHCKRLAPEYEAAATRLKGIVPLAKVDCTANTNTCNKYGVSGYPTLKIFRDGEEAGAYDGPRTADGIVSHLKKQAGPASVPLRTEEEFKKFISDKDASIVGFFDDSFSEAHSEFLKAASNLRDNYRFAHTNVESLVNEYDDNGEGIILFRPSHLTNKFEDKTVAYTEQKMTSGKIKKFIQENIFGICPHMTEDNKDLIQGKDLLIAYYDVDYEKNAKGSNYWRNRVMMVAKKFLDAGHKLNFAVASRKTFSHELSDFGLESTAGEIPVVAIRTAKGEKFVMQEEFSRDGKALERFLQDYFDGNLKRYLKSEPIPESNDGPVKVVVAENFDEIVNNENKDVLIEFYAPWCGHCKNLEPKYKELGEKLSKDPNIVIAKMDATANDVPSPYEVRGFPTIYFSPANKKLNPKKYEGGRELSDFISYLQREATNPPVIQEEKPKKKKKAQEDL

[9] = Inhibition of PDI (unknown origin) expressed in Escherichia coli BL21 (DE3) incubated for 1 hr and measured by insulin reduction assay; design: species or system Homo sapiens
[10] = molecular target: Thioredoxin domain-containing protein 5 (Homo sapiens, UniProt Q8NBS9); assay: Inhibition of TXNDC5 (unknown origin)
Cytochrome P450 3A4 = Cytochrome P450 3A4 (Homo sapiens, UniProt P08684); assay: Inhibition of CYP3A4 in human liver microsomes using midazolam as substrate incubated for 30 mins by LC-MS/MS analysis; assay type: ADME; conditions: 0.5 h
Sequence of Cytochrome P450 3A4 (P08684 whole entry): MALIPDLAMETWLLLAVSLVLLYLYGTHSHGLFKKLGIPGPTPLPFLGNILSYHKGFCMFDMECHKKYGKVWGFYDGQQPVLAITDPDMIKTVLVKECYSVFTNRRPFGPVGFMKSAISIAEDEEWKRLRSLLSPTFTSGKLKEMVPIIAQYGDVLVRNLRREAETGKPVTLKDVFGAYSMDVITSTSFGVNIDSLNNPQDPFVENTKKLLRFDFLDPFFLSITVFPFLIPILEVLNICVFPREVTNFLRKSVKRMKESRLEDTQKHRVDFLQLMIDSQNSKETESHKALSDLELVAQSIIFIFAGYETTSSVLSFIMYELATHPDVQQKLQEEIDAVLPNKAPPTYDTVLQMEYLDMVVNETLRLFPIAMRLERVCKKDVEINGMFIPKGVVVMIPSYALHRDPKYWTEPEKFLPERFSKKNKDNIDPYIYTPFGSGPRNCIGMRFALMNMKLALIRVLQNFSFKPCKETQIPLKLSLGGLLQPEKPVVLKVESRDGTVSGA

Sequence of Thioredoxin domain-containing protein 5 (Q8NBS9 whole entry, the tested form may be a part): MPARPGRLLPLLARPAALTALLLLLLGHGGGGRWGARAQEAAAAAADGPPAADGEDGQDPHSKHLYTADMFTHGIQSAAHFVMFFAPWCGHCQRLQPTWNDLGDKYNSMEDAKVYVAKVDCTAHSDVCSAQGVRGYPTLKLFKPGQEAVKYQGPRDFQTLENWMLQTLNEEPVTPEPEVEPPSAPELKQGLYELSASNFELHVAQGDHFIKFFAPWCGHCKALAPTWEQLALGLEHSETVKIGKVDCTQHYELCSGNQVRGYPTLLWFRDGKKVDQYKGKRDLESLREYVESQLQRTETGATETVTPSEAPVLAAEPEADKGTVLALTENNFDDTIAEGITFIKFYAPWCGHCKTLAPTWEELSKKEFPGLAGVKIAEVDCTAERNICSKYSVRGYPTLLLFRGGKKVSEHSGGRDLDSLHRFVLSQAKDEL

SMILES: CCCCCCCC/C=C1/C=C(C(F)(F)F)c2cc(OC)c(OC)cc21
- ATF4 induction (activity call) (MM1.S [1]): Active
- CHOP induction (activity call) (MM1.S [2]): Active
- IC50 [3]: 61.6 µM
- poly-ubiquitinated protein accumulation (qualitative) (MM1.S [4]): Active
- IC50 [5]: Not Active
- IC50 [6]: 16.3 µM
- Nrf2 induction (activity call) (MM1.S [7]): Active
- IC50 [8]: 20.8 µM
- IC50 [9]: 1.12 µM
- IC50 [10]: > 100 µM

SMILES: FC(F)(F)C1=C/C(=C\CC2CCCC2)c2cc3c(cc21)OCO3
- ATF4 induction (activity call) (MM1.S [1]): Active
- CHOP induction (activity call) (MM1.S [2]): Active
- poly-ubiquitinated protein accumulation (qualitative) (MM1.S [4]): Active
- Nrf2 induction (activity call) (MM1.S [7]): Active

SMILES: CCCCCC/C=C1\C=C(C(F)(F)F)c2cc3c(cc21)OCO3
- ATF4 induction (activity call) (MM1.S [1]): Active
- inhibition (INH) (Cytochrome P450 3A4): Not Active
- CHOP induction (activity call) (MM1.S [2]): Active
- IC50 [3]: > 100 µM
- poly-ubiquitinated protein accumulation (qualitative) (MM1.S [4]): Active
- IC50 [5]: Not Active
- IC50 [6]: 12 µM
- Nrf2 induction (activity call) (MM1.S [7]): Active
- IC50 [8]: 16.5 µM
- IC50 [9]: 0.79 µM
- IC50 [10]: > 100 µM

SMILES: CCCCCC/C=C1\C=C(C(=O)NC)c2cc(O)c(O)cc21
- ATF4 induction (activity call) (MM1.S [1]): Active
- CHOP induction (activity call) (MM1.S [2]): Active
- poly-ubiquitinated protein accumulation (qualitative) (MM1.S [4]): Active
- Nrf2 induction (activity call) (MM1.S [7]): Active

SMILES: CCCCCCCC/C=C1\C=C(C(F)(F)F)c2cc(OC)c(OC)cc21
- ATF4 induction (activity call) (MM1.S [1]): Active
- CHOP induction (activity call) (MM1.S [2]): Active
- poly-ubiquitinated protein accumulation (qualitative) (MM1.S [4]): Active
- Nrf2 induction (activity call) (MM1.S [7]): Active

SMILES: CCCCCC/C=C1\C=C(C(F)(F)F)c2cc3c(cc21)OCCO3
- ATF4 induction (activity call) (MM1.S [1]): Active
- CHOP induction (activity call) (MM1.S [2]): Active
- poly-ubiquitinated protein accumulation (qualitative) (MM1.S [4]): Active
- Nrf2 induction (activity call) (MM1.S [7]): Active

SMILES: FC(F)(F)C1=C/C(=C\CCCCCCOCc2ccccc2)c2cc3c(cc21)OCO3
- ATF4 induction (activity call) (MM1.S [1]): Active
- CHOP induction (activity call) (MM1.S [2]): Active
- poly-ubiquitinated protein accumulation (qualitative) (MM1.S [4]): Active
- Nrf2 induction (activity call) (MM1.S [7]): Active

SMILES: CCCCCC/C=C1\C=C(C(F)(F)F)c2cc(O)c(O)cc21
- ATF4 induction (activity call) (MM1.S [1]): Active
- CHOP induction (activity call) (MM1.S [2]): Active
- poly-ubiquitinated protein accumulation (qualitative) (MM1.S [4]): Active
- Nrf2 induction (activity call) (MM1.S [7]): Active

SMILES: FC(F)(F)C1=C/C(=C/CCCCCCOCc2ccccc2)c2cc3c(cc21)OCO3
- ATF4 induction (activity call) (MM1.S [1]): Active
- CHOP induction (activity call) (MM1.S [2]): Active
- poly-ubiquitinated protein accumulation (qualitative) (MM1.S [4]): Active
- Nrf2 induction (activity call) (MM1.S [7]): Active

SMILES: CCCCCC/C=C1\C=C(C(F)(F)F)c2cc(OC)ccc21
- ATF4 induction (activity call) (MM1.S [1]): Active
- CHOP induction (activity call) (MM1.S [2]): Active
- poly-ubiquitinated protein accumulation (qualitative) (MM1.S [4]): Active
- Nrf2 induction (activity call) (MM1.S [7]): Active

SMILES: COc1cc2c(cc1OC)/C(=C\CCCCCCOCc1ccccc1)C=C2C(F)(F)F
- ATF4 induction (activity call) (MM1.S [1]): Active
- CHOP induction (activity call) (MM1.S [2]): Active
- poly-ubiquitinated protein accumulation (qualitative) (MM1.S [4]): Active
- Nrf2 induction (activity call) (MM1.S [7]): Active

SMILES: CCCCCC/C=C1/C=C(C(F)(F)F)c2cc(O)c(O)cc21
- ATF4 induction (activity call) (MM1.S [1]): Active
- CHOP induction (activity call) (MM1.S [2]): Active
- poly-ubiquitinated protein accumulation (qualitative) (MM1.S [4]): Active
- Nrf2 induction (activity call) (MM1.S [7]): Active

SMILES: COc1cc2c(cc1OC)/C(=C/CCCCCCOCc1ccccc1)C=C2C(F)(F)F
- ATF4 induction (activity call) (MM1.S [1]): Active
- CHOP induction (activity call) (MM1.S [2]): Active
- poly-ubiquitinated protein accumulation (qualitative) (MM1.S [4]): Active
- Nrf2 induction (activity call) (MM1.S [7]): Active

SMILES: FC(F)(F)C1=C/C(=C\CC2CCCCC2)c2cc3c(cc21)OCO3
- ATF4 induction (activity call) (MM1.S [1]): Active
- CHOP induction (activity call) (MM1.S [2]): Active
- poly-ubiquitinated protein accumulation (qualitative) (MM1.S [4]): Active
- Nrf2 induction (activity call) (MM1.S [7]): Active

SMILES: CCCCCC/C=C1\C=C(C(=O)OCC)c2cc(O)c(O)cc21
- ATF4 induction (activity call) (MM1.S [1]): Active
- CHOP induction (activity call) (MM1.S [2]): Active
- poly-ubiquitinated protein accumulation (qualitative) (MM1.S [4]): Active
- Nrf2 induction (activity call) (MM1.S [7]): Active

SMILES: CCCCCCCC/C=C1/C=C(C(F)(F)F)c2cc(O)c(O)cc21
- ATF4 induction (activity call) (MM1.S [1]): Active
- CHOP induction (activity call) (MM1.S [2]): Active
- poly-ubiquitinated protein accumulation (qualitative) (MM1.S [4]): Active
- Nrf2 induction (activity call) (MM1.S [7]): Active

SMILES: CCCCCCCC/C=C1\C=C(C(F)(F)F)c2cc(O)c(O)cc21
- ATF4 induction (activity call) (MM1.S [1]): Active
- inhibition (INH) (Cytochrome P450 3A4): Not Active
- CHOP induction (activity call) (MM1.S [2]): Active
- IC50 [3]: 33.1 µM
- poly-ubiquitinated protein accumulation (qualitative) (MM1.S [4]): Active
- IC50 ([5]; read-out: IC50): 30.3 µM
- IC50 [6]: 5.7 µM
- Nrf2 induction (activity call) (MM1.S [7]): Active
- IC50 [8]: 4.8 µM
- IC50 [9]: 0.6 µM
- IC50 [10]: 12.1 µM

SMILES: CCCCCC/C=C1\C=C(C(=O)O)c2cc(O)c(O)cc21
- ATF4 induction (activity call) (MM1.S [1]): Active
- CHOP induction (activity call) (MM1.S [2]): Active
- poly-ubiquitinated protein accumulation (qualitative) (MM1.S [4]): Active
- Nrf2 induction (activity call) (MM1.S [7]): Active
